Test results taken from the NIST ThermoML archive (doi:10.1021/je900537y).
± gives the expanded uncertainty stated by the source.

Assay: molar heat capacity at constant pressure
Conditions: 101.33 kPa, Liquid, Small sample (50 mg) DSC

NCCCN [1,3-propanediamine]
Conditions | molar heat capacity at constant pressure [J/K/mol]
293.15 K | 203.05 ± 3.1
294.65 K | 203.21 ± 3.1
296.15 K | 203.37 ± 3.1
297.65 K | 203.53 ± 3.1
298.15 K | 203.59 ± 3.1
299.15 K | 203.7 ± 3.2
300.65 K | 203.86 ± 3.2
302.15 K | 204.03 ± 3.2
303.65 K | 204.19 ± 3.2
305.15 K | 204.36 ± 3.2
306.65 K | 204.53 ± 3.2
308.15 K | 204.7 ± 3.2
309.65 K | 204.87 ± 3.2
311.15 K | 205.04 ± 3.2
312.65 K | 205.21 ± 3.2
314.15 K | 205.38 ± 3.2
315.65 K | 205.56 ± 3.2
317.15 K | 205.73 ± 3.2
318.65 K | 205.91 ± 3.2
320.15 K | 206.08 ± 3.2
321.65 K | 206.26 ± 3.2
323.15 K | 206.43 ± 3.2
324.65 K | 206.61 ± 3.2
326.15 K | 206.79 ± 3.2
327.65 K | 206.96 ± 3.2
329.15 K | 207.14 ± 3.2
330.65 K | 207.32 ± 3.2
332.15 K | 207.5 ± 3.2
333.65 K | 207.67 ± 3.2
335.15 K | 207.85 ± 3.2
336.65 K | 208.03 ± 3.2
338.15 K | 208.2 ± 3.2
339.65 K | 208.38 ± 3.2
341.15 K | 208.56 ± 3.2
342.65 K | 208.73 ± 3.2
344.15 K | 208.91 ± 3.2
345.65 K | 209.08 ± 3.2
347.15 K | 209.26 ± 3.2
348.65 K | 209.43 ± 3.2
350.15 K | 209.6 ± 3.2
351.65 K | 209.78 ± 3.2
353.15 K | 209.95 ± 3.2

NCCCCN [1,4-butanediamine]
Conditions | molar heat capacity at constant pressure [J/K/mol]
298.15 K | 236.33 ± 3.7
299.15 K | 236.45 ± 3.7
300.65 K | 236.61 ± 3.7
302.15 K | 236.77 ± 3.7
303.65 K | 236.94 ± 3.7
305.15 K | 237.09 ± 3.7
306.65 K | 237.25 ± 3.7
308.15 K | 237.41 ± 3.7
309.65 K | 237.56 ± 3.7
311.15 K | 237.72 ± 3.7
312.65 K | 237.87 ± 3.7
314.15 K | 238.03 ± 3.7
315.65 K | 238.18 ± 3.7
317.15 K | 238.34 ± 3.7
318.65 K | 238.49 ± 3.7
320.15 K | 238.65 ± 3.7
321.65 K | 238.81 ± 3.7
323.15 K | 238.97 ± 3.7
324.65 K | 239.13 ± 3.7
326.15 K | 239.29 ± 3.7
327.65 K | 239.46 ± 3.7
329.15 K | 239.63 ± 3.7
330.65 K | 239.8 ± 3.7
332.15 K | 239.98 ± 3.7
333.65 K | 240.15 ± 3.7
335.15 K | 240.34 ± 3.7
336.65 K | 240.52 ± 3.7
338.15 K | 240.71 ± 3.7
339.65 K | 240.91 ± 3.7
341.15 K | 241.11 ± 3.7
342.65 K | 241.32 ± 3.7
344.15 K | 241.53 ± 3.7
345.65 K | 241.74 ± 3.8
347.15 K | 241.97 ± 3.8
348.65 K | 242.2 ± 3.8
350.15 K | 242.43 ± 3.8
351.65 K | 242.68 ± 3.8
353.15 K | 242.93 ± 3.8

NCCCCCCN [1,6-hexanediamine]
Conditions | molar heat capacity at constant pressure [J/K/mol]
314.15 K | 301.08 ± 4.7
315.65 K | 301.25 ± 4.7
317.15 K | 301.42 ± 4.7
318.65 K | 301.59 ± 4.7
320.15 K | 301.77 ± 4.7
321.65 K | 301.95 ± 4.7
323.15 K | 302.14 ± 4.7
324.65 K | 302.33 ± 4.7
326.15 K | 302.53 ± 4.7
327.65 K | 302.74 ± 4.7
329.15 K | 302.95 ± 4.7
330.65 K | 303.17 ± 4.7
332.15 K | 303.4 ± 4.7
333.65 K | 303.64 ± 4.7
335.15 K | 303.88 ± 4.7
336.65 K | 304.13 ± 4.7
338.15 K | 304.4 ± 4.7
339.65 K | 304.67 ± 4.7
341.15 K | 304.95 ± 4.7
342.65 K | 305.25 ± 4.7
344.15 K | 305.55 ± 4.7
345.65 K | 305.87 ± 4.7
347.15 K | 306.2 ± 4.7
348.65 K | 306.54 ± 4.8
350.15 K | 306.89 ± 4.8
351.65 K | 307.26 ± 4.8
353.15 K | 307.64 ± 4.8

NCCCCCCCN [1,7-diaminoheptane]
Conditions | molar heat capacity at constant pressure [J/K/mol]
302.15 K | 332.76 ± 5.2
303.65 K | 332.93 ± 5.2
305.15 K | 333.11 ± 5.2
306.65 K | 333.29 ± 5.2
308.15 K | 333.48 ± 5.2
309.65 K | 333.67 ± 5.2
311.15 K | 333.86 ± 5.2
312.65 K | 334.06 ± 5.2
314.15 K | 334.27 ± 5.2
315.65 K | 334.48 ± 5.2
317.15 K | 334.7 ± 5.2
318.65 K | 334.92 ± 5.2
320.15 K | 335.15 ± 5.2
321.65 K | 335.38 ± 5.2
323.15 K | 335.62 ± 5.2
324.65 K | 335.87 ± 5.2
326.15 K | 336.12 ± 5.2
327.65 K | 336.38 ± 5.2
329.15 K | 336.64 ± 5.2
330.65 K | 336.91 ± 5.2
332.15 K | 337.18 ± 5.2
333.65 K | 337.47 ± 5.2
335.15 K | 337.76 ± 5.2
336.65 K | 338.05 ± 5.2
338.15 K | 338.35 ± 5.2
339.65 K | 338.66 ± 5.2
341.15 K | 338.98 ± 5.2
342.65 K | 339.3 ± 5.3
344.15 K | 339.63 ± 5.3
345.65 K | 339.97 ± 5.3
347.15 K | 340.31 ± 5.3
348.65 K | 340.66 ± 5.3
350.15 K | 341.02 ± 5.3
351.65 K | 341.39 ± 5.3
353.15 K | 341.76 ± 5.3

NCCCCCCCCCN [1,9-diaminononane]
Conditions | molar heat capacity at constant pressure [J/K/mol]
311.15 K | 398.93 ± 6.2
312.65 K | 399.04 ± 6.2
314.15 K | 399.17 ± 6.2
315.65 K | 399.32 ± 6.2
317.15 K | 399.47 ± 6.2
318.65 K | 399.64 ± 6.2
320.15 K | 399.82 ± 6.2
321.65 K | 400.02 ± 6.2
323.15 K | 400.22 ± 6.2
324.65 K | 400.44 ± 6.2
326.15 K | 400.67 ± 6.2
327.65 K | 400.92 ± 6.2
329.15 K | 401.17 ± 6.2
330.65 K | 401.44 ± 6.2
332.15 K | 401.72 ± 6.2
333.65 K | 402.02 ± 6.2
335.15 K | 402.32 ± 6.2
336.65 K | 402.64 ± 6.2
338.15 K | 402.97 ± 6.2
339.65 K | 403.32 ± 6.2
341.15 K | 403.67 ± 6.2
342.65 K | 404.04 ± 6.3
344.15 K | 404.43 ± 6.3
345.65 K | 404.82 ± 6.3
347.15 K | 405.23 ± 6.3
348.65 K | 405.65 ± 6.3
350.15 K | 406.08 ± 6.3
351.65 K | 406.52 ± 6.3
353.15 K | 406.98 ± 6.3

NCCN [ethane-1,2-diamine]
Conditions | molar heat capacity at constant pressure [J/K/mol]
293.15 K | 172.34 ± 2.7
294.65 K | 172.43 ± 2.7
296.15 K | 172.53 ± 2.7
297.65 K | 172.63 ± 2.7
298.15 K | 172.66 ± 2.7
299.15 K | 172.73 ± 2.7
300.65 K | 172.84 ± 2.7
302.15 K | 172.95 ± 2.7
303.65 K | 173.06 ± 2.7
305.15 K | 173.17 ± 2.7
306.65 K | 173.29 ± 2.7
308.15 K | 173.41 ± 2.7
309.65 K | 173.53 ± 2.7
311.15 K | 173.66 ± 2.7
312.65 K | 173.79 ± 2.7
314.15 K | 173.92 ± 2.7
315.65 K | 174.05 ± 2.7
317.15 K | 174.18 ± 2.7
318.65 K | 174.31 ± 2.7
320.15 K | 174.45 ± 2.7
321.65 K | 174.59 ± 2.7
323.15 K | 174.72 ± 2.7
324.65 K | 174.86 ± 2.7
326.15 K | 175 ± 2.7
327.65 K | 175.15 ± 2.7
329.15 K | 175.29 ± 2.7
330.65 K | 175.43 ± 2.7
332.15 K | 175.58 ± 2.7
333.65 K | 175.72 ± 2.7
335.15 K | 175.86 ± 2.7
336.65 K | 176.01 ± 2.7
338.15 K | 176.15 ± 2.7
339.65 K | 176.3 ± 2.7
341.15 K | 176.44 ± 2.7
342.65 K | 176.59 ± 2.7
344.15 K | 176.73 ± 2.7
345.65 K | 176.87 ± 2.7
347.15 K | 177.02 ± 2.7
348.65 K | 177.16 ± 2.7
350.15 K | 177.3 ± 2.8
351.65 K | 177.44 ± 2.8
353.15 K | 177.58 ± 2.8
